Experimental data reported in patent US20240408085A1, “COMPOUND FOR DEGRADATION OF BCL-2 FAMILY PROTEINS AND MEDICAL APPLICATION THEREOF” (XIZANG HAISCO PHARMACEUTICAL CO., LTD., priority 2021, published 2024).

System: MOLT-4 cells
Assay: Cell proliferation activity in MOLT-4 cells (72 h, cell viability luminescence)
Type: cell-based, human
Details: Homo sapiens, read-out: IC50 for the inhibition of MOLT-4 cell proliferation
Experimental: MOLT-4 cells are acute lymphoblastic leukemia cell lines in humans. The cells were purchased from ATCC. Culture conditions: RPMI-1640+10% FBS+1% penicillin-streptomycin solution. The cells were cultured in a 37° C., 5% CO2 incubator. The cells were plated in a 96-well plate, with 5×10^3 cells/well. After plating, compounds at different concentrations were added and cultured in a 37° C., 5% CO2 incubator for 72 h. After the completion of culture, a reagent (Promega, G7573) for detecting the cell viability was added. The mixture was uniformly mixed for 2 minutes and then incubated at room temperature for 10 minutes. The luminescence signal was detected with a multimode plate reader (BMG, PHERAstar FSX). The luminescence readings were processed using GraphPad Prism 8.0 software and the IC50 values of the compounds for the inhibition of cell proliferation and the maximum inhibition rate were calculated according to formula (2) and formula (3), respectively, wherein Tadministration denotes the cell signal readings obtained after incubation with the compounds for 72 h, and Tvehicle denotes the cell signal readings obtained after incubation with the vehicle control for 72 h.
Calculation of Max inhibition %: after the processing according to formula (2), the inhibition rate of the compounds at the highest concentration was calculated.

Compound	IC50 [nM]
O=C1CCC(N2C(=O)c3ccc(N4CCC(CN5CCN(CC[C@H](CSc6ccccc6)Nc6ccc(S(=O)(=O)NC(=O)c7ccc(N8CCN(CC9=C(c%10ccc(Cl)cc%10)CCCCC9)CC8)cc7)cc6S(=O)(=O)C(F)(F)F)CC5)CC4)cc3C2=O)C(=O)N1 (stereo partly drawn) [Compound 45, 4-(4-((2-(4-chlorophenyl)cyclohept-1-en-1-yl)methyl)piperazin-1-yl)-N-((4-(((2R)-4-(4-((1-(2-(2,6-dioxopiperidin-3-yl)-1,3-dioxoisoindolin-5-yl)piperidin-4-yl)methyl)piperazin-1-yl)-1-(phenylthio)butan-2-yl)amino)-3-((trifluoromethyl)sulfonyl)phenyl)sulfonyl)benzamide]	< 500
Cc1ncsc1-c1ccc([C@H](C)NC(=O)[C@@H]2C[C@@H](O)CN2C(=O)[C@@H](NC(=O)CCCCCCC(=O)N2C[C@@H]3C[C@H]2CN3CC[C@H](CSc2ccccc2)Nc2ccc(S(=O)(=O)NC(=O)c3ccc(N4CCN(CC5=C(c6ccc(Cl)cc6F)CCC6(CC6)C5)CC4)cc3)cc2S(=O)(=O)C(F)(F)F)C(C)(C)C)cc1 [Compound 30, (2S,4R)-1-((S)-2-(8-((1S,4S)-5-((R)-3-((4-(N-(4-(4-((6-(4-chloro-2-fluorophenyl)spiro[2.5]oct-5-en-5-yl)methyl)piperazin-1-yl)benzoyl)sulfamoyl)-2-((trifluoromethyl)sulfonyl)phenyl)amino)-4-(phenylthio)butyl)-2,5-diazabicyclo[2.2.1]heptan-2-yl)-8-oxooctanamido)-3,3-dimethylbutanoyl)-4-hydroxy-N—((S)-1-(4-(4-methylthiazol-5-yl)phenyl)ethyl)pyrrolidine-2-carboxamide]	< 500
O=C1CCC(N2C(=O)c3ccc(N4CC(CN5CCN(CC[C@H](CSc6ccccc6)Nc6ccc(S(=O)(=O)NC(=O)c7ccc(N8CCN(CC9=C(c%10ccc(Cl)cc%10)CCCCC9)CC8)cc7)cc6S(=O)(=O)C(F)(F)F)CC5)C4)cc3C2=O)C(=O)N1 (stereo partly drawn) [Compound 44, 4-(4-((2-(4-chlorophenyl)cyclohept-1-en-1-yl)methyl)piperazin-1-yl)-N-((4-(((2R)-4-(4-((1-(2-(2,6-dioxopiperidin-3-yl)-1,3-dioxoisoindolin-5-yl)azetidin-3-yl)methyl)piperazin-1-yl)-1-(phenylthio)butan-2-yl)amino)-3-((trifluoromethyl)sulfonyl)phenyl)sulfonyl)benzamide]	< 500
Cc1ncsc1-c1ccc([C@H](C)NC(=O)[C@@H]2C[C@@H](O)CN2C(=O)[C@@H](NC(=O)CCCCCC(=O)N2CCN(CC[C@H](CSc3ccccc3)Nc3ccc(S(=O)(=O)NC(=O)c4ccc(N5CCN(C/C6=C(\c7ccc(Cl)cc7)CCCCCC6)CC5)cc4)cc3S(=O)(=O)C(F)(F)F)CC2)C(C)(C)C)cc1 [Compound 43, (2S,4R)-1-((S)-2-(7-(4-((R)-3-((4-(N-(4-(4-((2-(4-chlorophenyl)cyclooct-1-en-1-yl)methyl)piperazin-1-yl)benzoyl)sulfamoyl)-2-((trifluoromethyl)sulfonyl)phenyl)amino)-4-(phenylthio)butyl)piperazin-1-yl)-7-oxoheptanamido)-3,3-dimethylbutanoyl)-4-hydroxy-N—((S)-1-(4-(4-methylthiazol-5-yl)phenyl)ethyl)pyrrolidine-2-carboxamide]	< 500
Cc1ncsc1-c1ccc([C@H](C)NC(=O)[C@@H]2C[C@@H](O)CN2C(=O)[C@@H](NC(=O)CCCCCC(=O)N2C[C@H]3CN(CC[C@H](CSc4ccccc4)Nc4ccc(S(=O)(=O)NC(=O)c5ccc(N6CCN(CC7=C(c8ccc(Cl)cc8)CCCCC7)CC6)cc5)cc4S(=O)(=O)C(F)(F)F)C[C@H]3C2)C(C)(C)C)cc1 [Compound 41, cis-(2S,4R)-1-((S)-2-(7-(5-((R)-3-((4-(N-(4-(4-((2-(4-chlorophenyl)cyclohept-1-en-1-yl)methyl)piperazin-1-yl)benzoyl)sulfamoyl)-2-((trifluoromethyl)sulfonyl)phenyl)amino)-4-(phenylthio)butyl)hexahydropyrrolo[3,4-c]pyrrol-2(1H)-yl)-7-oxoheptanamido)-3,3-dimethylbutanoyl)-4-hydroxy-N—((S)-1-(4-(4-methylthiazol-5-yl)phenyl)ethyl)pyrrolidine-2-carboxamide]	< 500
Cc1ncsc1-c1ccc([C@H](C)NC(=O)[C@@H]2C[C@@H](O)CN2C(=O)[C@@H](NC(=O)CCCCCCC(=O)N2C[C@H]3CN(CC[C@H](CSc4ccccc4)Nc4ccc(S(=O)(=O)NC(=O)c5ccc(N6CCN(CC7=C(c8ccc(Cl)cc8)CCC8(CC8)C7)CC6)cc5)cc4S(=O)(=O)C(F)(F)F)C[C@H]3C2)C(C)(C)C)cc1 [Compound 22, cis-(2S,4R)-1-((S)-2-(8-(5-((R)-3-((4-(N-(4-(4-((6-(4-chlorophenyl)spiro[2.5]oct-5-en-5-yl)methyl)piperazin-1-yl)benzoyl)sulfamoyl)-2-((trifluoromethyl)sulfonyl)phenyl)amino)-4-(phenylthio)butyl)hexahydropyrrolo[3,4-c]pyrrol-2(1H)-yl)-8-oxooctanamido)-3,3-dimethylbutanoyl)-4-hydroxy-N—((S)-1-(4-(4-methylthiazol-5-yl)phenyl)ethyl)pyrrolidine-2-carboxamide]	< 500
Cc1ncsc1-c1ccc([C@H](C)NC(=O)[C@@H]2C[C@@H](O)CN2C(=O)[C@@H](NC(=O)CCCCCC(=O)N2C[C@@H]3C[C@H]2CN3CC[C@H](CSc2ccccc2)Nc2ccc(S(=O)(=O)NC(=O)c3ccc(N4CCN(CC5=C(c6ccc(Cl)cc6F)CCC6(CC6)C5)CC4)cc3)cc2S(=O)(=O)C(F)(F)F)C(C)(C)C)cc1 [Compound 29, (2S,4R)-1-((S)-2-(7-((1S,4S)-5-((R)-3-((4-(N-(4-(4-((6-(4-chloro-2-fluorophenyl)spiro[2.5]oct-5-en-5-yl)methyl)piperazin-1-yl)benzoyl)sulfamoyl)-2-((trifluoromethyl)sulfonyl)phenyl)amino)-4-(phenylthio)butyl)-2,5-diazabicyclo[2.2.1]heptan-2-yl)-7-oxoheptanamido)-3,3-dimethylbutanoyl)-4-hydroxy-N—((S)-1-(4-(4-methylthiazol-5-yl)phenyl)ethyl)pyrrolidine-2-carboxamide]	< 500
Cc1ncsc1-c1ccc([C@H](C)NC(=O)[C@@H]2C[C@@H](O)CN2C(=O)[C@@H](NC(=O)CCCCCCC(=O)N2C[C@@H]3C[C@H]2CN3CC[C@H](CSc2ccccc2)Nc2ccc(S(=O)(=O)NC(=O)c3ccc(N4CCN(CC5=C(c6ccc(Cl)cc6)CCC(C)(C)C5)CC4)cc3)cc2S(=O)(=O)C(F)(F)F)C(C)(C)C)cc1 [Compound 25, (2S,4R)-1-((S)-2-(8-((1S,4S)-5-((R)-3-((4-(N-(4-(4-((4′-chloro-4,4-dimethyl-3,4,5,6-tetrahydro-[1,1′-biphenyl]-2-yl)methyl)piperazin-1-yl)benzoyl)sulfamoyl)-2-((trifluoromethyl)sulfonyl)phenyl)amino)-4-(phenylthio)butyl)-2,5-diazabicyclo[2.2.1]heptan-2-yl)-8-oxooctanamido)-3,3-dimethylbutanoyl)-4-hydroxy-N—((S)-1-(4-(4-methylthiazol-5-yl)phenyl)ethyl)pyrrolidine-2-carboxamide]	< 500
